Converted amounts (≈) assume the structure as drawn.
Conditions: buffer; pH 7.4; 6.0 h; 150.0 µM

| solubility kinetic | Compound |
| --- | --- |
| < 1 µg/mL | Cc1ccccc1C(=O)Nc1sc2c(c1C(=O)NCc1ccco1)CCC(C(C)(C)C)C2 (stereo not drawn) |
| 9.42 µg/mL (≈ 20.9 µM) | Cc1ccc(S(=O)(=O)Nc2cnccc2C(=O)Nc2nc(-c3ccccc3)cs2)cc1 |
| < 1 µg/mL | Cc1ccc(S(=O)(=O)Nc2ccc(Br)cc2C(=O)Nc2nc(-c3ccccc3)cs2)cc1 |
| 8.21 µg/mL (≈ 27 µM) | CCOC(=O)Nc1ccc(NCc2ccc(F)cc2)nc1N |
| < 1 µg/mL | O=[S+]([O-])(Nc1ccc2ccccc2c1)c1ccc(NCc2ccc(Cl)cc2O)cc1 |
| 14.6 µg/mL (≈ 32.4 µM) | O=C(Nc1ccc(OC(F)(F)Cl)cc1)c1cnc(N2CC[C@@H](O)C2)c(-c2ccn[nH]2)c1 |
| < 1 µg/mL | O=C(Cc1ccc(Cl)c(Cl)c1)Nc1ccc([S+](=O)([O-])Nc2ccccn2)cc1 |
| 8.9 µg/mL (≈ 30.3 µM) | c1ccc(C2=Nn3c(nnc3-c3ccncc3)SC2)cc1 |
| 1.3 µg/mL (≈ 3.93 µM) | O=C(NCc1ccc(N2CCCC2)nc1)c1cc(Cl)ccc1O |
| 23.2 µg/mL (≈ 82.4 µM) | Nc1nc2c(s1)C(c1ccc(F)cc1F)CC(=O)N2 (stereo not drawn) |
| 6.63 µg/mL (≈ 15.3 µM) | CCC1=Nc2cc(C(=O)NCCCOC)ccc2Sc2ccc(Br)cc21 |
| 2.73 µg/mL (≈ 6.84 µM) | O=C(Nc1cccc(Cc2ccccc2)n1)c1ccc(-c2cccc([N+](=O)[O-])c2)o1 |
| < 1 µg/mL | COc1ccc(-c2ccc3nc(-c4ccccc4C)oc3c2)c(OC)c1OC |
| 2.15 µg/mL (≈ 6.32 µM) | Cn1c(=O)c2c(nc(Cl)n2Cc2ccc(Cl)cc2)n(C)c1=O |
| 4.02 µg/mL (≈ 10 µM) | Fc1cc(Nc2nc(-c3ccncc3)nc3ccccc23)ccc1N1CCNCC1 |
| > 58 µg/mL | COc1ccc(O)c(CNc2ccc(S(=O)(=O)Nc3nccs3)cc2)c1 |
| 15.8 µg/mL (≈ 37.9 µM) | COc1ccc(NC(=O)c2c(C)cccc2C)cc1[S+](=O)([O-])N1CCCCCC1 |
| < 1 µg/mL | Cc1ccc(S(=O)(=O)Nc2ccccc2C(=O)Nc2ccc(-c3ccccc3)nc2)cc1 |

| solubility kinetic | Compound |
| --- | --- |
| 5.88 µg/mL (≈ 12.8 µM) | O=C(NCc1ccc(S(=O)(=O)c2cccc(C(F)(F)F)c2)cc1)c1cnc2[nH]ncc2c1 |
| < 1 µg/mL | FC(F)(F)c1cccc(N2CCN(C(=S)Nc3cc4ccccc4cn3)CC2)c1 |
| < 1 µg/mL | CCOc1cc(CCNC(=O)c2cc3sccc3n2Cc2ccccc2)cc(F)c1OCC |
| > 94 µg/mL | O=C1NCc2cc(-c3cc4c(ccn4Cc4ccncc4)c(N4CCOCC4)n3)ccc21 |
| < 1 µg/mL | COc1cccc(NC(=O)c2cc(-c3ccc(C)c(C)c3)nc3ccccc23)c1 |
| 42 µg/mL (≈ 107 µM) | COc1ccc(-n2nc(C)c([C@@H]3C=C[C@@H](NCc4ccc(F)cc4)C3)c2C)cc1 |
| 36.6 µg/mL (≈ 64.8 µM) | C=C[C@]1(C)C[C@@H](OC(=O)CSC(C)(C)CNC(=O)[C@H](N)C(C)C)[C@]2(C)[C@H](C)CC[C@]3(CCC(=O)[C@H]32)[C@@H](C)[C@@H]1O |
| 7.15 µg/mL (≈ 19 µM) | Cc1ccccc1C(=O)Nc1ccc2c(c1)CCCN2C(=O)c1cccs1 |
| > 66 µg/mL | CCN(CC)CCNC(=O)C1CCN(c2nn3cc(-c4ccc(F)cc4)nc3s2)CC1 |
| < 1 µg/mL | Cc1ccc([S+](=O)([O-])n2cc(Cc3ccc(-c4ccccc4)cc3)c3ccccc32)cc1 |
| > 67 µg/mL | Cc1cc(NS(=O)(=O)c2ccc(N(C)C(=O)Cc3ccc(Cl)c(Cl)c3)cc2)no1 |
| < 1 µg/mL | Fc1ccc(-c2ccc(Nc3nc(-c4ccncc4)nc4ccccc34)cc2F)c(Cl)c1 |
| > 61 µg/mL | COc1cc2c(cc1-c1c(C)noc1C)ncc1[nH]c(=O)n([C@H](C)c3ccccn3)c12 |
| < 1 µg/mL | Cc1ccc(-c2ccc(CNc3nc(-c4ccccc4C(C)C)ncc3F)cc2)cn1 |
| > 51 µg/mL | O=C(O)c1ccnc(-c2cc(C(=O)NCCc3ccccc3)ccn2)c1 |
| 4.67 µg/mL (≈ 10.6 µM) | O=S(=O)(Nc1cccc2ccncc12)c1ccc(NCc2cccc(Cl)c2O)cc1 |
| 69.1 µg/mL (≈ 124 µM) | CN1CCN(c2ccc(-c3cccc(CN4CCOCC4)c3)cc2NC(=O)c2c[nH]c(=O)cc2C(F)(F)F)CC1 |
| 18.7 µg/mL (≈ 45.1 µM) | CN1CCN(c2ccc(Nc3nc(-c4ccncc4)nc4ccccc34)cc2F)CC1 |

| Compound | solubility kinetic |
| --- | --- |
| CCOc1ccc(CCNC(=O)c2cc3ccccc3n2Cc2cccc(C)n2)cc1OCC | < 1 µg/mL |
| CCc1ccc(-n2nc(C)c3c2NC(=O)CSC3c2ccccc2C)cc1 (stereo not drawn) | 1.11 µg/mL (≈ 2.95 µM) |

From PubChem BioAssay AID1645848
